Laboratory results as given in ChEMBL document CHEMBL3407372, “Photodynamic effects induced by meso-tris(pentafluorophenyl)corrole and its cyclodextrin conjugates on cytoskeletal components of HeLa cells” (Eur J Med Chem, 2015).
Activity calls are given as the source filed them. The rule behind the calls is not given here.

Assays:
[1] = tested on: HeLa; experiment: Phototoxicity against human HeLa cells assessed as survival fraction at 1x10'-5 M incubated 24 hrs under 6 J/cm'2 red light with irradiance of 5 mW/cm'2 by MTT assay; assay type: functional; settings: light or radiation study, read-out: Survival
[2] = tested on: HeLa; experiment: Drug uptake in human HeLa cells assessed as filamentous pattern of mitochondria at 1x10'-5 M incubated 24 hrs by mitotracker green; assay type: ADME, cell-based; settings: 10 µM
[3] = tested on: HeLa; experiment: Phototoxicity against human HeLa cells assessed as lethality rate at 1x10'-5 M incubated 24 hrs under 9 J/cm'2 red light with irradiance of 5 mW/cm'2 by MTT assay; assay type: functional
[4] = tested on: HeLa; experiment: Cytotoxicity against human HeLa cells assessed as survival fraction at 1x10'-4 M incubated 24 hrs in dark by MTT assay; assay type: functional; settings: read-out: Survival
[5] = tested on: HeLa; experiment: Cytotoxicity against human HeLa cells assessed as survival fraction at 1x10'-5 M incubated 24 hrs in dark by MTT assay; assay type: functional; settings: read-out: Survival
[6] = tested on: HeLa; experiment: Phototoxicity against human HeLa cells assessed as survival fraction at 1x10'-5 M incubated 24 hrs under 9 J/cm'2 red light with irradiance of 5 mW/cm'2 by MTT assay; assay type: functional; settings: light or radiation study, read-out: Survival
[7] = tested on: HeLa; experiment: Phototoxicity against human HeLa cells assessed as survival fraction at 1x10'-5 M incubated 24 hrs under 3 J/cm'2 red light with irradiance of 5 mW/cm'2 by MTT assay; assay type: functional; settings: light or radiation study, read-out: Survival
[8] = tested on: HeLa; experiment: Phototoxicity against human HeLa cells assessed as survival fraction at 1x10'-5 M incubated 24 hrs under 12 J/cm'2 red light with irradiance of 5 mW/cm'2 by MTT assay; assay type: functional; settings: light or radiation study, read-out: Survival
[9] = tested on: HeLa; experiment: Phototoxicity against human HeLa cells assessed as abnormalities in chromosome disposition in metaphase plate at LD70 concentration incubated 24 hrs under 12 J/cm'2 red light with irradiance of 5 mW/cm'2 by immunofluorescence staining; assay type: functional, cell-based
[10] = tested on: HeLa; experiment: Phototoxicity against human HeLa cells assessed as changes in microtubular organization at LD70 concentration incubated 24 hrs under 12 J/cm'2 red light with irradiance of 5 mW/cm'2 by immunofluorescence staining; assay type: functional, cell-based
[11] = tested on: HeLa; experiment: Drug uptake in human HeLa cells assessed as located in cytoplasm at 1x10'-5 M incubated 24 hrs by red emission under fluorescence microscopy; assay type: ADME, cell-based; settings: 10 µM
[12] = tested on: HeLa; experiment: Drug uptake in human HeLa cells assessed as lysosomes at 1x10'-5 M incubated 24 hrs by acridine orange staining; assay type: ADME, cell-based; settings: 10 µM
[13] = tested on: HeLa; experiment: Drug uptake in human HeLa cells assessed as juxtanuclear portion at 1x10'-5 M incubated 24 hrs by ceramide; assay type: ADME, cell-based; settings: 10 µM
[14] = tested on: HeLa; experiment: Drug uptake in human HeLa cells assessed as located in granules at 1x10'-5 M incubated 24 hrs by red emission under fluorescence microscopy; assay type: ADME, cell-based; settings: 10 µM
[15] = tested on: HeLa; experiment: Phototoxicity against human HeLa cells assessed as survival fraction at 1x10'-4 M incubated 24 hrs under 6 J/cm'2 red light with irradiance of 5 mW/cm'2 by MTT assay; assay type: functional; settings: light or radiation study, read-out: Survival
[16] = tested on: HeLa; experiment: Phototoxicity against human HeLa cells assessed as survival fraction at 1x10'-4 M incubated 24 hrs under 12 J/cm'2 red light with irradiance of 5 mW/cm'2 by MTT assay; assay type: functional; settings: light or radiation study, read-out: Survival
[17] = tested on: HeLa; experiment: Phototoxicity against human HeLa cells assessed as survival fraction at 1x10'-4 M incubated 24 hrs under 9 J/cm'2 red light with irradiance of 5 mW/cm'2 by MTT assay; assay type: functional; settings: light or radiation study, read-out: Survival
[18] = tested on: HeLa; experiment: Cytotoxicity against human HeLa cells assessed as survival fraction at 1x10'-7 M incubated 24 hrs in dark by MTT assay; assay type: functional; settings: read-out: Survival
[19] = tested on: HeLa; experiment: Phototoxicity against human HeLa cells assessed as survival fraction at 1x10'-7 M incubated 24 hrs under 6 J/cm'2 red light with irradiance of 5 mW/cm'2 by MTT assay; assay type: functional; settings: light or radiation study, read-out: Survival
[20] = tested on: HeLa; experiment: Drug uptake in human HeLa cells assessed as nucleus at 1x10'-5 M incubated 24 hrs by red emission under fluorescence microscopy; assay type: ADME, cell-based; settings: 10 µM
[21] = tested on: HeLa; experiment: Phototoxicity against human HeLa cells assessed as changes in microtubular organization at LD20 concentration incubated 24 hrs under 12 J/cm'2 red light with irradiance of 5 mW/cm'2 by immunofluorescence staining; assay type: functional, cell-based
[22] = tested on: HeLa; experiment: Phototoxicity against human HeLa cells assessed as survival fraction at 1x10'-7 M incubated 24 hrs under 9 J/cm'2 red light with irradiance of 5 mW/cm'2 by MTT assay; assay type: functional; settings: light or radiation study, read-out: Survival
[23] = tested on: HeLa; experiment: Phototoxicity against human HeLa cells assessed as lethality rate at 1x10'-5 M incubated 24 hrs under 6 J/cm'2 red light with irradiance of 5 mW/cm'2 by MTT assay; assay type: functional
[24] = tested on: HeLa; experiment: Phototoxicity against human HeLa cells assessed as abnormalities in chromosome disposition in metaphase plate at LD20 concentration incubated 24 hrs under 12 J/cm'2 red light with irradiance of 5 mW/cm'2 by immunofluorescence staining; assay type: functional, cell-based
[25] = tested on: HeLa; experiment: Phototoxicity against human HeLa cells assessed as survival fraction at 1x10'-7 M incubated 24 hrs under 3 J/cm'2 red light with irradiance of 5 mW/cm'2 by MTT assay; assay type: functional; settings: light or radiation study, read-out: Survival
[26] = tested on: HeLa; experiment: Phototoxicity against human HeLa cells assessed as lethality rate at 1x10'-5 M incubated 24 hrs under 3 J/cm'2 red light with irradiance of 5 mW/cm'2 by MTT assay; assay type: functional; settings: light or radiation study
[27] = tested on: HeLa; experiment: Drug uptake in human HeLa cells assessed as golgi apparatus at 1x10'-5 M incubated 24 hrs by mitotracker green; assay type: ADME, cell-based; settings: 10 µM

## Fc1c(F)c(F)c(-c2c3nc(c(-c4c(F)c(F)c(F)c(F)c4F)c4ccc([nH]4)c4ccc([nH]4)c(-c4c(F)c(F)c(F)c(F)c4F)c4ccc2[nH]4)C=C3)c(F)c1F
[1]
  viability at 10 µM: 80.9%
[2]
  Drug uptake: Active
[3]
  Activity: 70%
[4]
  viability at 100 µM: 117%
[5]
  viability at 10 µM: 108%
[6]
  viability at 10 µM: 44.5%
[7]
  viability at 10 µM: 104%
[8]
  viability at 10 µM: 38.5%
[9]
  Activity: Active
[10]
  Activity: Active
[11]
  Drug uptake: Active
[12]
  Drug uptake: Active
[13]
  Drug uptake: Active
[14]
  Drug uptake: Active

## OC[C@H]1O[C@@H]2O[C@H]3O[C@H](COc4c(F)c(F)c(-c5c6nc(c(-c7c(F)c(F)c(F)c(F)c7F)c7ccc([nH]7)c(-c7c(F)c(F)c(OC[C@H]8O[C@@H]9O[C@H]%10O[C@H](CO)[C@@H](O[C@H]%11O[C@H](CO)[C@@H](O[C@H]%12O[C@H](CO)[C@@H](O[C@H]%13O[C@H](CO)[C@@H](O[C@H]%14O[C@H](CO)[C@@H](O[C@H]%15O[C@H](CO)[C@@H](O[C@H]8[C@H](O)[C@H]9O)[C@H](O)[C@H]%15O)[C@H](O)[C@H]%14O)[C@H](O)[C@H]%13O)[C@@H](O)[C@H]%12O)[C@H](O)[C@H]%11O)[C@H](O)[C@H]%10O)c(F)c7F)c7ccc([nH]7)c7ccc5[nH]7)C=C6)c(F)c4F)[C@@H](O[C@H]4[C@H](O)[C@@H](O)[C@@H](O[C@H]5[C@H](O)[C@@H](O)[C@@H](O[C@H]6[C@H](O)[C@@H](O)[C@@H](O[C@H]7[C@@H](O)[C@@H](O)[C@@H](O[C@H]8[C@H](O)[C@@H](O)[C@@H](O[C@H]1[C@H](O)[C@H]2O)O[C@@H]8CO)O[C@@H]7CO)O[C@@H]6CO)O[C@@H]5CO)O[C@@H]4CO)[C@H](O)[C@H]3O
[1]
  viability at 10 µM: 121%
[4]
  viability at 100 µM: 86%
[5]
  viability at 10 µM: 121%
[15]
  viability at 100 µM: 86%
[6]
  viability at 10 µM: 111%
[16]
  viability at 100 µM: 57.6%
[8]
  viability at 10 µM: 57.6%
[17]
  viability at 100 µM: 85%

## OC[C@H]1O[C@@H]2O[C@H]3O[C@H](COc4c(F)c(F)c(-c5c6ccc([nH]6)c(-c6c(F)c(F)c(F)c(F)c6F)c6nc(c(-c7c(F)c(F)c(F)c(F)c7F)c7ccc([nH]7)c7ccc5[nH]7)C=C6)c(F)c4F)[C@@H](O[C@H]4[C@H](O)[C@@H](O)[C@@H](O[C@H]5[C@H](O)[C@@H](O)[C@@H](O[C@H]6[C@H](O)[C@@H](O)[C@@H](O[C@H]7[C@@H](O)[C@@H](O)[C@@H](O[C@H]8[C@H](O)[C@@H](O)[C@@H](O[C@H]1[C@H](O)[C@H]2O)O[C@@H]8CO)O[C@@H]7CO)O[C@@H]6CO)O[C@@H]5CO)O[C@@H]4CO)[C@H](O)[C@H]3O
[1]
  viability at 10 µM: 95.6%
[18]
  viability at 0.1 µM: 113%
[19]
  viability at 0.1 µM: 80.2%
[5]
  viability at 10 µM: 162%
[20]
  Drug uptake: Active
[6]
  viability at 10 µM: 81.6%
[21]
  Activity: Active
[7]
  viability at 10 µM: 93.6%
[22]
  viability at 0.1 µM: 90.1%
[23]
  Activity: 22%
[24]
  Activity: Active
[25]
  viability at 0.1 µM: 92%
[26]
  inhibition at 10 µM: 20%
[8]
  viability at 10 µM: 81.6%
[27]
  Drug uptake: Active
